Test results reported in ChEMBL document CHEMBL1201862, “PubChem BioAssay data set” (2004).
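Test compounds were applied to cells in 96-well plates for 48 hours at 5 doses. GI50: concentration for 50% inhibition of growth.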 Activity calls are given as the source filed them. Rule as the data show it: active = GI50 up to about 1.1 µM and inactive = higher.

Tests used:
Test in all cases: NCI tumour cell line growth inhibition, 48 h
[1] = tested on: KM-20L2
[2] = tested on: LXFL 529
[3] = tested on: SNB-78
[4] = tested on: XF498
[5] = tested on: DMS-114
[6] = tested on: DMS-273
[7] = tested on: HOP-18
[8] = tested on: M19-MEL
[9] = tested on: RXF 631

SMILES	GI50 [1]	GI50 [2]	GI50 [3]	GI50 [4]	GI50 [5]	GI50 [6]	GI50 [7]	GI50 [8]	GI50 [9]
COc1cc2c(cc1OC)C1Cc3ccc(OC)c(OC)c3C[N+]1([O-])CC2 (configuration not stated)	> 100 µM (inactive)	> 100 µM (inactive)	> 100 µM (inactive)	> 100 µM (inactive)	–	–	–	–	–
COC1=NCc2ccccc2-c2ccccc21	–	> 10 µM (inactive)	> 100 µM (inactive)	> 100 µM (inactive)	> 100 µM (inactive)	> 100 µM (inactive)	75.9 µM (inactive)	–	–
C=CCn1c(=O)n(CC=C)c(=O)n(CC=C)c1=O	> 100 µM (inactive)	> 100 µM (inactive)	> 100 µM (inactive)	–	> 100 µM (inactive)	> 100 µM (inactive)	> 100 µM (inactive)	> 100 µM (inactive)	–
O=C(n1c2ccccc2c2nnc(S)nc21)C(F)(F)F	–	> 100 µM (inactive)	> 100 µM (inactive)	> 100 µM (inactive)	> 100 µM (inactive)	> 100 µM (inactive)	–	> 100 µM (inactive)	–
CC(C)N(C(=O)C12C3C4C5(C(=O)O)C(C1C35I)C42C(=O)O)C(C)C (configuration not stated)	> 100 µM (inactive)	> 100 µM (inactive)	> 100 µM (inactive)	–	> 100 µM (inactive)	> 100 µM (inactive)	–	> 100 µM (inactive)	> 100 µM (inactive)
CC1(C2CCC3(C)OC3C2)CO1 (configuration not stated)	> 100 µM (inactive)	> 100 µM (inactive)	> 100 µM (inactive)	> 100 µM (inactive)	> 100 µM (inactive)	> 100 µM (inactive)	> 100 µM (inactive)	> 100 µM (inactive)	> 100 µM (inactive)
COc1cccc(/C=N/[N-]C(=S)Nc2ccccc2)c1[O-].O.[Zn+2]	40.3 µM (inactive)	68.5 µM (inactive)	40.1 µM (inactive)	23.2 µM (inactive)	15.4 µM (inactive)	–	> 100 µM (inactive)	60 µM (inactive)	–
Clc1ccc(C(n2cc(Br)cn2)n2cc(Br)cn2)cc1	–	14.9 µM (inactive)	19.7 µM (inactive)	–	–	18.8 µM (inactive)	18.1 µM (inactive)	16.9 µM (inactive)	–
CCOP(=S)(OCC)Oc1ccc2c(c1)OC(=O)C1(Cl)C2(C)C2(Cl)C(=O)Oc3cc(OP(=S)(OCC)OCC)ccc3C12C (configuration not stated)	17.1 µM (inactive)	8.67 µM (inactive)	19.4 µM (inactive)	19.2 µM (inactive)	14.6 µM (inactive)	20.3 µM (inactive)	–	18 µM (inactive)	–
Cc1cc2c(cn1)C(=O)OCC2	> 100 µM (inactive)	> 100 µM (inactive)	> 100 µM (inactive)	> 100 µM (inactive)	> 100 µM (inactive)	–	> 100 µM (inactive)	> 100 µM (inactive)	–
CCC(=S)N(C)O	21.7 µM (inactive)	0.499 µM (active)	55.6 µM (inactive)	1.01 µM (active)	2.22 µM (inactive)	–	–	9.77 µM (inactive)	–
Oc1ccc2ccccc2c1/N=N/c1ccsc1	> 100 µM (inactive)	> 100 µM (inactive)	> 100 µM (inactive)	–	> 100 µM (inactive)	> 100 µM (inactive)	> 100 µM (inactive)	> 100 µM (inactive)	45.5 µM (inactive)
Cc1ccc(-n2c3nc(=O)n(C)c(=O)c-3nc3ccccc32)c(C)c1	4.92 µM (inactive)	11.3 µM (inactive)	21.5 µM (inactive)	13.1 µM (inactive)	–	4.34 µM (inactive)	6.62 µM (inactive)	1.63 µM (inactive)	7.05 µM (inactive)
COc1ccc2c(c1)[n+]([O-])c(/C(C)=N/NC(=O)CC#N)c[n+]2[O-]	> 100 µM (inactive)	> 100 µM (inactive)	> 100 µM (inactive)	> 100 µM (inactive)	> 100 µM (inactive)	> 100 µM (inactive)	> 100 µM (inactive)	> 100 µM (inactive)	> 100 µM (inactive)
COC(=O)c1nn(C(=N)c2ccc(Cl)cc2)c2c1CCCCC2	> 100 µM (inactive)	> 100 µM (inactive)	> 100 µM (inactive)	–	> 100 µM (inactive)	> 100 µM (inactive)	–	> 100 µM (inactive)	–
O=C1/C(=C/c2ccccc2)CN(C(=O)CCN2CCCC2)C/C1=C\c1ccccc1	1.62 µM (inactive)	1.72 µM (inactive)	3.8 µM (inactive)	5.09 µM (inactive)	2.07 µM (inactive)	1.75 µM (inactive)	3.35 µM (inactive)	1.84 µM (inactive)	4.08 µM (inactive)
CC12C(=CC(=O)CC1SCCS(=O)(=O)O)C(C#N)=C(N)N2c1ccc(Cl)c(Cl)c1 (configuration not stated)	> 100 µM (inactive)	> 100 µM (inactive)	> 100 µM (inactive)	–	> 100 µM (inactive)	> 100 µM (inactive)	–	> 100 µM (inactive)	–
COc1cccc2c1C(=O)c1c(O)c3c(c(O)c1C2=O)CC(O)(C(O)CO)CC3OC1CC(N2CCOCC2)C(O)C(C)O1 (configuration not stated)	0.0267 µM (active)	0.0124 µM (active)	0.0106 µM (active)	0.0168 µM (active)	0.018 µM (active)	< 0.001 µM (active)	< 0.001 µM (active)	0.0146 µM (active)	< 0.001 µM (active)
CN(C)NC(=O)NC12CC3CC(CC(C3)C1)C2	> 100 µM (inactive)	> 100 µM (inactive)	> 100 µM (inactive)	> 100 µM (inactive)	–	> 100 µM (inactive)	–	> 100 µM (inactive)	–
CN(C)C(=S)/N=c1\ss/c(=N\S(=O)(=O)c2ccccc2)n1N(C)C	> 100 µM (inactive)	> 100 µM (inactive)	> 100 µM (inactive)	–	12.9 µM (inactive)	92 µM (inactive)	> 100 µM (inactive)	55.5 µM (inactive)	> 100 µM (inactive)
O=C(/C=C/c1ccc([N+](=O)[O-])cc1)c1ccc(NCc2nc3ccccc3[nH]2)cc1	3.98 µM (inactive)	2.9 µM (inactive)	5.81 µM (inactive)	6.17 µM (inactive)	1.91 µM (inactive)	3.05 µM (inactive)	16.4 µM (inactive)	3.94 µM (inactive)	3.49 µM (inactive)
COC(=O)[C@H]1C=C[C@@H](C)n2c(=O)c3cc4ccccc4cc3c(=O)n21	> 100 µM (inactive)	> 100 µM (inactive)	> 100 µM (inactive)	98.9 µM (inactive)	> 100 µM (inactive)	> 100 µM (inactive)	–	> 100 µM (inactive)	> 100 µM (inactive)
